{"source": "patent US20240033246A1", "about": "“COMPOUNDS FOR TREATING EYE DISEASES AND DISORDERS” (The State of Israel, Ministry of Agriculture & Rural …, priority 2020, published 2024)", "key": {"[1]": {"test_system": "retinal cone photoreceptors", "test": "Eye cup cultures stained for M-cone opsin (cone photoreceptor cell death in vitro)", "assay_type": "cell-based", "details": "8 nM TTF in growth media, 18 hours, eye cups of 21-day old RPE65/rd12 mice, vs vehicle (0.0115% DMSO)", "method": "Eyes were obtained from 21-day old RPE65/rd12 mice, and the posterior segment was separated from the cornea, the lens, the iris, and the ciliary body under a surgical microscope. The eye cups were placed onto a microporous membrane (30 mm in diameter; Millicell-CM; Millipore, Bedford, MA) with the ganglion cell layer (GCL) facing up and the sclera facing the filter in a six-well culture plate. Each well contained 1 ml of culture medium consisting of 50% minimum essential medium/HEPES (Sigma, St. Louis, MO), 25% HBSS (Invitrogen, USA), and 25% heat inactivated fetal bovine serum (Invitrogen, USA) supplemented with 200 μM L-glutamine and 5.75 mg/ml glucose and 8 nM natural TTF (nTTF) or synthetic TTF (sTTF) or same volume of vehicle solution (0.0115% DMSO, control). The eye cups were maintained in culture at 37° C., 5% C02 incubator for 18 hours.\nThe eye cups were fixed with 4% paraformaldehyde (PFA) and embedded in sucrose for cryopreservation. […]\nSections from these eye cups were stained with antibodies directed against M-cone opsin (Milipore, USA) by incubating the sections with antibodies diluted 1:100 in 1% BSA (Sigma) for 16 hrs at 4° C. followed by extensive washing in PBS and 1 hour incubation with 488-AffiniPure Donkey Anti-Mouse IgG antibody (Jackson Immuno Research) at room temperature. […] The number of positively stained cells/mm retina was recorded. […]"}, "IL-1β": {"test_system": "IL-1β", "test": "IL-1β concentration in retinal lysates (ELISA)", "assay_type": "in vivo, RPE65/rd12 mice", "details": "eye drops 12.5 mg/ml TTF in DMSO twice daily, 6 days/week, 3 weeks; vs vehicle", "method": "3 weeks old RPE65/rd12 mice were treated twice daily (6 days/week) for 3 weeks with eye drops containing 12.5 mg/ml (34.7 mM) TTF in DMSO (10p1/eye drop) or vehicle alone (DMSO).\nEach pair of retinas from the same mouse was homogenized in the same tube in 120 μl lysis buffer containing 10 mM TRIS pH 7.5, 100 mM NaCl, 1 mM EDTA, and 0.01% TRITON X-100. Protein concentration in each sample was determined in duplicates using a commercial kit: Pierce™ BCA Protein Assay Kit (23227), Thermo Fisher Scientific, IL, USA. IL-1β levels were tested using a commercial sandwich ELISA kit: Mouse IL-1 beta/IL-1F2 DuoSet ELISA (DY401). R&D Systems, Inc., MN, USA."}, "[2]": {"test": "Side effects after daily TTF eye drops (general health, retinal and corneal structure)", "assay_type": "in vivo", "details": "12 weeks of daily treatment with TTF eye drops", "method": "(§1) 3 weeks old RPE65/rd12 mice were treated twice daily (6 days/week) for 12 weeks with eye drops (10p1/eye drop) containing 12.5 mg/ml (34.7 mM) TTF (n=6) or vehicle alone (DMSO, n=6)."}, "retinal photoreceptors": {"test_system": "retinal photoreceptors", "test": "TUNEL staining of photoreceptor layer (photoreceptor apoptosis)", "assay_type": "in vivo, RPE65/rd12 mice", "details": "eye drops 12.5 mg/ml TTF in DMSO twice daily, 6 days/week, 3 weeks; n=7; p=0.0013 vs placebo", "method": "3 weeks old RPE65/rd12 mice were treated twice daily (6 days/week) for 3 weeks with eye drops containing 12.5 mg/ml (34.7 mM) TTF in DMSO (10 μl/eye drop) or vehicle alone (DMSO).\nMice were euthanized using C02, the eyes were obtained and fixed in 10% formalin. Frozen sections were stained with TUNEL-TMR kit following manufacturer's instructions. The number of TUNEL positive nuclei in the outer nuclear layer was counted as well as the length of retinal sections. Results are shown in FIG. 6 as the number of TUNEL positive nuclei/mm retina."}, "retinal function": {"test_system": "retinal function", "test": "Dark-adapted electroretinogram (ERG), retinal function", "assay_type": "in vivo, RPE65/rd12 mice", "details": "eye drops 12.5 mg/ml TTF twice daily, 6 days/week, 12 weeks; n=6; vs placebo eye drops", "method": "as §1\nFor dark adapted ERG, the mice were placed in total darkness for at least 12 h prior to examination. Animals were anesthetized with intraperitoneal injection containing 75 mg/kg ketamine and 10 mg/kg xylazine. Pupils were dilated with topical 1% tropicamide and 10% phenylephrine HCl. ERGs were recorded from both eyes simultaneously, using golden wire loop electrodes positioned on each cornea. Chloride silver electrodes were inserted subcutaneously near the temporal canthi as reference. An additional ground electrode was placed on the tail. Tests were performed under dark adapted (scotopic), and light adapted (photopic) conditions. Five light stimuli at increasing intensities were used (0.0023, 0.25, 2.4, 4.4, 23.5 cd-s/m2). For dark adapted ERG, responses were averaged with stimulus intervals of 1 to 30 s depending on the stimulus light intensity."}, "[3]": {"test": "TTF eye drops crossing the corneal barrier, HPLC of anterior chamber fluids", "assay_type": "in vivo", "details": "eye drops 12.5 mg/ml in DMSO, rabbit", "method": "TTF eye drops (12.5 mg/ml=34.7 mM in DMSO) or vehicle (DMSO) were dropped every 10 seconds on rabbit eyes (10 eye drops of 50 μL per eye−0.5 mL total volume). The eye fluids were collected 45 minutes or 3 hours later. About 100 microliters of anterior chamber fluids were collected from each eye. The eye fluids from both eyes of the same rabbit were pooled and the amount of TTF that penetrated the cornea was determined by IPLC analysis. Twenty microliters of pooled eye fluids were filtered and injected into an Agilent UIHPLC Infinity II 1290 device equipped with a Kinetex 5 μm EVO C18 column (250*4.6 mm). Running conditions were as follows: a 10-minute gradient was delivered at a flow rate of 1 mL/min: 5 minutes in a binary mobile phase which consisted of 0.5% acetic acid (in distilled water), and 5 minutes in acetonitrile in DDW. The detection was performed at a wavelength of 350 nm since, in eye fluids taken from naive rabbits or rabbits given eye drops containing DMSO only, there was no background at 350 nm interfering with the measurement. Under these conditions, the retention time of TTF is 5.086 minutes."}, "microglial cells": {"test_system": "microglial cells", "test": "Microglial activation and migration into the sub retina, Iba-1 staining of retina flat mounts", "assay_type": "in vivo, RPE65/rd12 mice", "details": "eye drops 12.5 mg/ml TTF in DMSO twice daily, 6 days/week, 3 weeks; n=10; p=0.0063 vs placebo", "method": "Eyes were lightly fixed in 4% PFA. The cornea, iris and lens were removed, the neuro-retina was peeled off and the RPE flat mount was incubated with Iba-1 antibodies (Wako chemicals, USA, 1:200 in PBS and 0.1% triton-X) for 16 hours at 4° C., followed by incubation with secondary Alexa Fluor® 488-AffiniPure Donkey Anti-Mouse IgG antibody (Jackson Immuno Research; USA, 1:400 in PBS with 0.2% DAPI) for 2 hours at room temperature. Samples were visualized using a fluorescent microscope (Olympus BX51) and recorded using the Olympus DP71 camera.\n3 weeks old RPE65/rd12 mice were treated twice daily (6 days/week) for 3 weeks with eye drops containing 12.5 mg/ml (34.7 mM) TTF in DMSO (10pl/eye drop) or vehicle alone (DMSO). Each treatment consisted of one eye drop. Retina flat mounts of the treated and the control RPE65/rd12 mice were prepared as described above and stained for the microglial specific marker Iba-1."}}, "data": [{"molecule": "COc1cc(-c2oc3cc(OC)c(OC)c(O)c3c(=O)c2O)ccc1O", "note": "[TTF, 3,5,4′-trihydroxy-6,7,3′-trimethoxyflavone]", "values": [{"measurement": "cone photoreceptor cell death in cultures of retinas", "setting": "[1]", "result": "attenuates cone photoreceptor cell death"}, {"measurement": "IL-1β concentration in the retina", "setting": "IL-1β", "result": "reduced"}, {"measurement": "side effects (general health, retinal and corneal structure)", "setting": "[2]", "result": "no side effects were observed"}, {"measurement": "TUNEL positive cells in the photoreceptor layer (mean±SE)", "setting": "retinal photoreceptors", "result": "2±0.4", "unit": "apoptotic cells/mm retina"}, {"measurement": "maximal dark-adapted ERG a-wave amplitude", "setting": "retinal function", "result": "significantly higher"}, {"measurement": "maximal dark-adapted ERG b-wave amplitude", "setting": "retinal function", "result": "significantly higher"}, {"measurement": "crossing of the corneal barrier / penetration into the eye", "setting": "[3]; 10 drops of 50 μL per eye, anterior chamber fluids", "result": "can cross the corneal barrier and penetrate the eye"}, {"measurement": "time of maximal concentration of TTF in eye fluids after eye drops instillation", "setting": "[3]; fluids collected at 45 minutes or 3 hours", "result": 45, "unit": "min"}, {"measurement": "infiltrating subretinal microglia (mean±SD)", "setting": "microglial cells", "result": "42±14", "unit": "microglia cells/retina"}]}]}
